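Dose response: 5 concentrations. Exposure: 48 h. Format: 96-well plates. Endpoint: linear interpolation; highest concentration if not reached. The concentration for full growth arrest is given as TGI.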
How the values were obtained:
Experiment in all cases: NCI-60 cell line screen, 48 h
786-0 renal = tested on: 786-0 renal
A498 renal = tested on: A498 renal
A549 NSCLC = tested on: A549 NSCLC
ACHN renal = tested on: ACHN renal
CAKI-1 renal = tested on: CAKI-1 renal
CCRF-CEM leukemia = tested on: CCRF-CEM leukemia
COLO 205 colon = tested on: COLO 205 colon
DLD-1 colon = tested on: DLD-1 colon
DMS 114 small cell lung = tested on: DMS 114 small cell lung
DMS 273 small cell lung = tested on: DMS 273 small cell lung
EKVX NSCLC = tested on: EKVX NSCLC
HCC-2998 colon = tested on: HCC-2998 colon
HCT-116 colon = tested on: HCT-116 colon
HCT-15 colon = tested on: HCT-15 colon
HL-60(TB) leukemia = tested on: HL-60(TB) leukemia
HOP-62 NSCLC = tested on: HOP-62 NSCLC
HOP-92 NSCLC = tested on: HOP-92 NSCLC
HT29 colon = tested on: HT29 colon
IGROV1 ovarian = tested on: IGROV1 ovarian
K-562 leukemia = tested on: K-562 leukemia
KM12 colon = tested on: KM12 colon
KM20L2 colon = tested on: KM20L2 colon
LOX IMVI melanoma = tested on: LOX IMVI melanoma
LXFL 529 NSCLC = tested on: LXFL 529 NSCLC
M14 melanoma = tested on: M14 melanoma
M19-MEL melanoma = tested on: M19-MEL melanoma
MALME-3M melanoma = tested on: MALME-3M melanoma
MOLT-4 leukemia = tested on: MOLT-4 leukemia
NCI-H226 lung = tested on: NCI-H226 lung
NCI-H23 lung = tested on: NCI-H23 lung
NCI-H460 lung = tested on: NCI-H460 lung
NCI-H522 lung = tested on: NCI-H522 lung
OVCAR-3 ovarian = tested on: OVCAR-3 ovarian
OVCAR-4 ovarian = tested on: OVCAR-4 ovarian
OVCAR-5 ovarian = tested on: OVCAR-5 ovarian
OVCAR-8 ovarian = tested on: OVCAR-8 ovarian
RPMI-8226 leukemia = tested on: RPMI-8226 leukemia
RXF 393 renal = tested on: RXF 393 renal
RXF-631 renal = tested on: RXF-631 renal
SF-268 CNS = tested on: SF-268 CNS
SF-295 CNS = tested on: SF-295 CNS
SF-539 CNS = tested on: SF-539 CNS
SK-MEL-2 melanoma = tested on: SK-MEL-2 melanoma
SK-MEL-28 melanoma = tested on: SK-MEL-28 melanoma
SK-MEL-5 melanoma = tested on: SK-MEL-5 melanoma
SK-OV-3 ovarian = tested on: SK-OV-3 ovarian
SN12C renal = tested on: SN12C renal
SNB-19 CNS = tested on: SNB-19 CNS
SNB-75 CNS = tested on: SNB-75 CNS
SNB-78 CNS = tested on: SNB-78 CNS
SW-620 colon = tested on: SW-620 colon
TK-10 renal = tested on: TK-10 renal
U251 CNS = tested on: U251 CNS
UACC-257 melanoma = tested on: UACC-257 melanoma
UACC-62 melanoma = tested on: UACC-62 melanoma
UO-31 renal = tested on: UO-31 renal
XF 498 CNS = tested on: XF 498 CNS

## c1ccc(CNc2ccc3[nH]c4cnccc4c3c2)cc1
786-0 renal
  TGI: 29.3 µM
A498 renal
  TGI: 28.6 µM
A549 NSCLC
  TGI: 34.7 µM
ACHN renal
  TGI: 29 µM
CAKI-1 renal
  TGI: 30.4 µM
CCRF-CEM leukemia
  TGI: 42.5 µM
COLO 205 colon
  TGI: 31 µM
DLD-1 colon
  TGI: 31.9 µM
DMS 114 small cell lung
  TGI: 32.1 µM
DMS 273 small cell lung
  TGI: 37.4 µM
EKVX NSCLC
  TGI: 43.4 µM
HCC-2998 colon
  TGI: 33.2 µM
HCT-116 colon
  TGI: 33.2 µM
HCT-15 colon
  TGI: 39.1 µM
HL-60(TB) leukemia
  TGI: 27.4 µM
HOP-62 NSCLC
  TGI: 31.7 µM
HOP-92 NSCLC
  TGI: 30.8 µM
HT29 colon
  TGI: 31.7 µM
IGROV1 ovarian
  TGI: 34.4 µM
K-562 leukemia
  TGI: 36.5 µM
KM12 colon
  TGI: 31.1 µM
KM20L2 colon
  TGI: 30.9 µM
LOX IMVI melanoma
  TGI: 33.5 µM
LXFL 529 NSCLC
  TGI: 30.5 µM
M14 melanoma
  TGI: 32.9 µM
M19-MEL melanoma
  TGI: 36.3 µM
MALME-3M melanoma
  TGI: 35.8 µM
MOLT-4 leukemia
  TGI: 36.9 µM
NCI-H226 lung
  TGI: 38.4 µM
NCI-H23 lung
  TGI: 32.3 µM
NCI-H460 lung
  TGI: 34.1 µM
NCI-H522 lung
  TGI: 29.1 µM
OVCAR-3 ovarian
  TGI: 27 µM
OVCAR-4 ovarian
  TGI: 29.1 µM
OVCAR-5 ovarian
  TGI: 30.9 µM
OVCAR-8 ovarian
  TGI: 36.5 µM
RPMI-8226 leukemia
  TGI: 54.7 µM
RXF 393 renal
  TGI: 26.8 µM
RXF-631 renal
  TGI: 49.2 µM
SF-268 CNS
  TGI: 35 µM
SF-295 CNS
  TGI: 32.6 µM
SF-539 CNS
  TGI: 33.3 µM
SK-MEL-2 melanoma
  TGI: 33.1 µM
SK-MEL-28 melanoma
  TGI: 27.1 µM
SK-MEL-5 melanoma
  TGI: 30.2 µM
SK-OV-3 ovarian
  TGI: 41.5 µM
SN12C renal
  TGI: 33.3 µM
SNB-19 CNS
  TGI: 29.6 µM
SNB-75 CNS
  TGI: 19.8 µM
SNB-78 CNS
  TGI: 38.5 µM
SW-620 colon
  TGI: 42.2 µM
TK-10 renal
  TGI: 36.2 µM
U251 CNS
  TGI: 32 µM
UACC-257 melanoma
  TGI: 31.4 µM
UACC-62 melanoma
  TGI: 34 µM
UO-31 renal
  TGI: 29.4 µM
XF 498 CNS
  TGI: 35.8 µM

## OC1CC1Sc1ccccc1 (configuration not stated)
786-0 renal
  TGI: 42.8 µM
A498 renal
  TGI: > 100 µM
A549 NSCLC
  TGI: > 100 µM
ACHN renal
  TGI: > 100 µM
CAKI-1 renal
  TGI: > 100 µM
CCRF-CEM leukemia
  TGI: > 100 µM
COLO 205 colon
  TGI: > 100 µM
DLD-1 colon
  TGI: > 100 µM
DMS 114 small cell lung
  TGI: 74.4 µM
DMS 273 small cell lung
  TGI: > 100 µM
EKVX NSCLC
  TGI: > 100 µM
HCC-2998 colon
  TGI: > 100 µM
HCT-116 colon
  TGI: 62.9 µM
HCT-15 colon
  TGI: > 100 µM
HL-60(TB) leukemia
  TGI: 39.6 µM
HOP-62 NSCLC
  TGI: > 100 µM
HOP-92 NSCLC
  TGI: > 100 µM
HT29 colon
  TGI: > 100 µM
IGROV1 ovarian
  TGI: 60.1 µM
K-562 leukemia
  TGI: > 100 µM
KM12 colon
  TGI: > 100 µM
LOX IMVI melanoma
  TGI: 71.1 µM
LXFL 529 NSCLC
  TGI: 89.2 µM
M14 melanoma
  TGI: > 100 µM
M19-MEL melanoma
  TGI: > 100 µM
MALME-3M melanoma
  TGI: > 100 µM
MOLT-4 leukemia
  TGI: 91.7 µM
NCI-H23 lung
  TGI: > 100 µM
NCI-H460 lung
  TGI: > 100 µM
NCI-H522 lung
  TGI: 39.8 µM
OVCAR-3 ovarian
  TGI: 78.7 µM
OVCAR-4 ovarian
  TGI: > 100 µM
OVCAR-5 ovarian
  TGI: > 100 µM
OVCAR-8 ovarian
  TGI: 92.7 µM
RPMI-8226 leukemia
  TGI: 83.4 µM
RXF 393 renal
  TGI: > 100 µM
RXF-631 renal
  TGI: > 100 µM
SF-268 CNS
  TGI: 78.1 µM
SF-295 CNS
  TGI: 69.4 µM
SF-539 CNS
  TGI: 46.4 µM
SK-MEL-2 melanoma
  TGI: > 100 µM
SK-MEL-28 melanoma
  TGI: 57.3 µM
SK-MEL-5 melanoma
  TGI: > 100 µM
SK-OV-3 ovarian
  TGI: > 100 µM
SN12C renal
  TGI: 61.7 µM
SNB-19 CNS
  TGI: > 100 µM
SNB-75 CNS
  TGI: > 100 µM
SNB-78 CNS
  TGI: > 100 µM
SW-620 colon
  TGI: 78.4 µM
TK-10 renal
  TGI: > 100 µM
U251 CNS
  TGI: > 100 µM
UACC-257 melanoma
  TGI: > 100 µM
UACC-62 melanoma
  TGI: > 100 µM
UO-31 renal
  TGI: 33.6 µM
XF 498 CNS
  TGI: > 100 µM
